Reference: patent publication US12662479B2 (Foghorn Therapeutics Inc., priority 2020, dated 2026)
Counter-ions that a name gives are not always drawn.

Experiments:
HiBit-BRM fusion protein = biological target: T1, HiBit-BRM fusion protein (Homo sapiens, UniProt P51531); experiment: HiBiT-BRM cell-based degradation assay (Nano-Glo HiBiT Lytic Detection, 24 h); details: HeLa cells expressing HiBiT-BRM; for DC50: read-out: BRM HiBit Degradation IC50; for BRM HiBit Degradation Maximum measured: top dose 30 μM
T1 construct: expressed in transfected cells
T1 sequence (P51531 whole entry, the tested form may be a part): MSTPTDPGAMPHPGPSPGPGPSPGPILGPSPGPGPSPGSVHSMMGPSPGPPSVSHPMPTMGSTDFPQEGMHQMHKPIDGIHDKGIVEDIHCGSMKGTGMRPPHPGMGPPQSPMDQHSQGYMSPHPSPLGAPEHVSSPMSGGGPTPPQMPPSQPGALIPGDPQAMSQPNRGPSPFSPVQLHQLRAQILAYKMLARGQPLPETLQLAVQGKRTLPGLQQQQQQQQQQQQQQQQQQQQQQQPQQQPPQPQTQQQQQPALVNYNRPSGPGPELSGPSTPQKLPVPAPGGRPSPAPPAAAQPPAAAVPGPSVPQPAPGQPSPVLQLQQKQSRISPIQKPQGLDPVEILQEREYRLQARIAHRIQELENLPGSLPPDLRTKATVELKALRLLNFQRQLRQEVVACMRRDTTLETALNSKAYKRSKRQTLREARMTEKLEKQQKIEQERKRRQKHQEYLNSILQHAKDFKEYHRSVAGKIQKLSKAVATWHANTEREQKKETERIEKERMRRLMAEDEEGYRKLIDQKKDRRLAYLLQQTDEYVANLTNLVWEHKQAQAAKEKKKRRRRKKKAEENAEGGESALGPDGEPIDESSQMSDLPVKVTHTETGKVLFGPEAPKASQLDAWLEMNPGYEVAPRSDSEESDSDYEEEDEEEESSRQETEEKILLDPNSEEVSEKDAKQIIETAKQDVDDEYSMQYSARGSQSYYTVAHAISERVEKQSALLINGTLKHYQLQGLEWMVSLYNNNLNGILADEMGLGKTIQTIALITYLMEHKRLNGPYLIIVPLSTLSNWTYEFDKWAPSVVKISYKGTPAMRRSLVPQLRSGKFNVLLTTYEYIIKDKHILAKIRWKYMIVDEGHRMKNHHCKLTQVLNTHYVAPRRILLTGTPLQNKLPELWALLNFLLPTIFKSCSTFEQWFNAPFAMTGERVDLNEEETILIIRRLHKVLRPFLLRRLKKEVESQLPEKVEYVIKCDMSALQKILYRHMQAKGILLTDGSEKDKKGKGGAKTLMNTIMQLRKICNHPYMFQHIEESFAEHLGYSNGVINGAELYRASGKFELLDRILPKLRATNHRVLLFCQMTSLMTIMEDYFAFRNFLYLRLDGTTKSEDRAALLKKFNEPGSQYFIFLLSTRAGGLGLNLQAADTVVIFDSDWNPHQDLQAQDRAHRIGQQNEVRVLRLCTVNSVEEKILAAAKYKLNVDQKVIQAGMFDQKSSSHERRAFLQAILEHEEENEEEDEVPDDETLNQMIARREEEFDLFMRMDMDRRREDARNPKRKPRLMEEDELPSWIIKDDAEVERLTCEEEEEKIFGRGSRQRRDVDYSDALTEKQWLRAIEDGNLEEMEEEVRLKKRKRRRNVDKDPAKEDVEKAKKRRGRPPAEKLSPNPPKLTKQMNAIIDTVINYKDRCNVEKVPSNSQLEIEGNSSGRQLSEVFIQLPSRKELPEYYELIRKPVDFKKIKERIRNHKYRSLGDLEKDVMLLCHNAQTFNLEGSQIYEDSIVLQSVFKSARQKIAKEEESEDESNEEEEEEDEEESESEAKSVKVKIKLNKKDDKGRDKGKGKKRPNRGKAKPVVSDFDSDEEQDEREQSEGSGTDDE
How it was run: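 HeLa cells stably expressing HiBiT-BRM were treated for 24 h with compounds (10-point 3-fold dilutions, 30 μM final top dose, in duplicate). HiBiT was detected by lytic LgBiT complementation luminescence. % degradation was normalized to DMSO (high control) and 2 μM of a reference BRM/BRG1 degrader (low control).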

[1] = biological target: T2, HiBit-BRG1 fusion protein (Homo sapiens, UniProt P51532); experiment: HiBiT-BRG1 cell-based degradation assay (Nano-Glo HiBiT Lytic Detection, 24 h); details: HeLa cells expressing HiBit-BRG1 and LgBit; for DC50: read-out: BRG1 HiBit Degradation IC50; for Dmax: HeLa, top dose 30 μM, read-out: BRG1 HiBit Degradation Maximum measured
T2 construct: expressed in transfected cells
T2 sequence (P51532 whole entry, the tested form may be a part): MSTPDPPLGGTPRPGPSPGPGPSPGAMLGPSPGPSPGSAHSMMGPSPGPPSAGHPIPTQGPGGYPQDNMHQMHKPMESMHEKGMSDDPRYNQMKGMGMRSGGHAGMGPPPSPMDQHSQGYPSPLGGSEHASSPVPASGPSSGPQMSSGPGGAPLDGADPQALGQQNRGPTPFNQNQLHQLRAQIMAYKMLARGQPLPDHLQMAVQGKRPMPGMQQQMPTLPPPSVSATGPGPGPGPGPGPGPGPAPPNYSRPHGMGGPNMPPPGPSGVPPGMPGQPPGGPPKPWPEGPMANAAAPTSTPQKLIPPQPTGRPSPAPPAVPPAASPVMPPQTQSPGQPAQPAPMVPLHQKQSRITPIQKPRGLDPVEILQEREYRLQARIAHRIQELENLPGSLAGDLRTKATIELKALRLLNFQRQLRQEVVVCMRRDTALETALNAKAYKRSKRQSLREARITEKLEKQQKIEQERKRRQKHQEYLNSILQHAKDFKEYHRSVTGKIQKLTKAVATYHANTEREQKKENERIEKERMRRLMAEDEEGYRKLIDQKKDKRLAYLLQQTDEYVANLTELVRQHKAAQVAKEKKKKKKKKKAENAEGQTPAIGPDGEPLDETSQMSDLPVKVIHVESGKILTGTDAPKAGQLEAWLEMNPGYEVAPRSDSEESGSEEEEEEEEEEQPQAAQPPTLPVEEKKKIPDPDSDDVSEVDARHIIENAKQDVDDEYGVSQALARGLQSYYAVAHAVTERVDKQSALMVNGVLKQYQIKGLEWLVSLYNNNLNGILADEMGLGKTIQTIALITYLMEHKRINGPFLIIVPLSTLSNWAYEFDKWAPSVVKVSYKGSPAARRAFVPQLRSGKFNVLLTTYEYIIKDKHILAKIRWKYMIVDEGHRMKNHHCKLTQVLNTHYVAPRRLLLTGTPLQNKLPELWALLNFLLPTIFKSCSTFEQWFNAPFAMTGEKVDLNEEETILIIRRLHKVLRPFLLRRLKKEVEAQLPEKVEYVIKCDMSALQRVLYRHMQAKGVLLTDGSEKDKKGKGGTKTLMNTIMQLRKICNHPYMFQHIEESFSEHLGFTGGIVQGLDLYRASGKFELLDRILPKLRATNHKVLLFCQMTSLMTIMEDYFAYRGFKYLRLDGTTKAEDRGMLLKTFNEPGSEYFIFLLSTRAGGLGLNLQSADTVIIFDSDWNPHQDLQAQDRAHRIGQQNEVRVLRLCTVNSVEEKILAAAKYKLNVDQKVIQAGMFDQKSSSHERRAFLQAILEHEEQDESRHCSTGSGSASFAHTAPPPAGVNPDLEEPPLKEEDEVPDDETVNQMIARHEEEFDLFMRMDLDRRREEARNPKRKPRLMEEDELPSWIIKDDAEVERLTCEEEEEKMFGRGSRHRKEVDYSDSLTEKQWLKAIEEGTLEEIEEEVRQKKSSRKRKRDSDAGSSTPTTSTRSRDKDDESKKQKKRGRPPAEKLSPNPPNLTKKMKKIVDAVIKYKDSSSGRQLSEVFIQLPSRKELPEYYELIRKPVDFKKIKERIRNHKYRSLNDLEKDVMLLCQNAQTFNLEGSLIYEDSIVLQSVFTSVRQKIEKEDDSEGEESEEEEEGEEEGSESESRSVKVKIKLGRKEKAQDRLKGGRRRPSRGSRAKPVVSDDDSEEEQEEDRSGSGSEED
How it was run: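 Stable HeLa line expressing HiBiT-BRG1 and LgBiT, seeded at 5000 cells/well; luminescence read after lytic Nano-Glo HiBiT reagent and 10 min shaking at RT. % degradation normalised between DMSO (high control) and 2 μM reference BRM/BRG1 degrader (low control).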

Compound | DC50 (HiBit-BRM fusion protein) [µM] | BRM HiBit Degradation Maximum measured (HiBit-BRM fusion protein) | DC50 [1] [µM] | Dmax [1] [%]
CS(=O)(=O)n1ccc(C(=O)NCC(=O)Nc2nc(C3CCCN(C(=O)C4CCN(CCOc5ccc6c(c5)C(=O)N(C5CCC(=O)NC5=O)C6=O)CC4)C3)cs2)c1 (centres unmarked) [Compound 145, N-(4-{1-[1-(2-{[2-(2,6-dioxopiperidin-3-yl)-1,3-dioxo-2,3-dihydro-1H-isoindol-5-yl]oxy}ethyl)piperidine-4-carbonyl]piperidin-3-yl}-1,3-thiazol-2-yl)-2-[(1-methanesulfonyl-1H-pyrrol-3-yl)formamido]acetamide formate] | > 10 | C (‘C’ = Maximum degradation <50%) | > 10 | < 50
CN(CCNC(=O)CN(C)c1cc(-c2cccc(-c3csc(NC(=O)CNC(=O)c4ccn(S(C)(=O)=O)c4)n3)c2)ccn1)CCNc1cccc2c1C(=O)N(C1CCC(=O)NC1=O)C2=O (centres unmarked) [Compound 21, N-(2-((4-(3-(2-((2-((2-((2-((2-(2,6-dioxopiperidin-3-yl)-1,3-dioxoisoindolin-4-yl)amino)ethyl)(methyl)amino)ethyl)amino)-2-oxoethyl)(methyl)amino)pyridin-4-yl)phenyl)thiazol-2-yl)amino)-2-oxoethyl)-1-(methylsulfonyl)-1H-pyrrole-3-carboxamide] | > 10 | C (‘C’ = Maximum degradation <50%) | > 10 | < 50
CS(=O)(=O)n1ccc(C(=O)N[C@@H](COCc2ccc(C(=O)NCCOC3CN(c4ccc5c(c4)C(=O)N(C4CCC(=O)NC4=O)C5=O)C3)cc2)C(=O)Nc2nc(-c3ccccc3)cs2)c1 (stereo partly drawn) [Compound 246, N-[2-([1-[2-(2,6-dioxopiperidin-3-yl)-1,3-dioxoisoindol-5-yl]azetidin-3-yl]oxy)ethyl]-4-[[(2S)-2-[(1-methanesulfonylpyrrol-3-yl)formamido]-2-[(4-phenyl-1,3-thiazol-2-yl)carbamoyl]ethoxy]methyl]benzamide] | 0.1 to 1 | B (‘B’ = Maximum degradation ≥50% and ≤75%) | 0.1 to 1 | > 75
Cc1cc(C(=O)NCC(=O)Nc2nc(-c3cccc(-c4ccnc(N(C)CC(=O)NCCCCCCCCNC(=O)COc5cccc6c5C(=O)N(C5CCC(=O)NC5=O)C6=O)c4)c3)cs2)cn1S(C)(=O)=O (centres unmarked) [Compound 131, N-(2-((4-(3-(2-((2-((8-(2-((2-(2,6-dioxopiperidin-3-yl)-1,3-dioxoisoindolin-4-yl)oxy)acetamido)octyl)amino)-2-oxoethyl)(methyl)amino)pyridin-4-yl)phenyl)thiazol-2-yl)amino)-2-oxoethyl)-5-methyl-1-(methylsulfonyl)-1H-pyrrole-3-carboxamide] | > 10 | C (‘C’ = Maximum degradation <50%) | > 10 | < 50
Cc1ncsc1-c1ccc(CNC(=O)[C@@H]2C[C@@H](O)CN2C(=O)[C@@H](NC(=O)CCCCCCCCCCCCC(=O)NCc2cccc(-c3cccc(-c4csc(NC(=O)CNC(=O)c5ccn(S(C)(=O)=O)c5)n4)c3)c2)C(C)(C)C)cc1 [Compound 118, N1-((S)-1-((2S,4R)-4-hydroxy-2-((4-(4-methylthiazol-5-yl)benzyl)carbamoyl)pyrrolidin-1-yl)-3,3-dimethyl-1-oxobutan-2-yl)-N14-((3′-(2-(2-(1-(methylsulfonyl)-1H-pyrrole-3-carboxamido)acetamido)thiazol-4-yl)-[1,1′-biphenyl]-3-yl)methyl)tetradecanediamide] | 0.1 to 1 | B (‘B’ = Maximum degradation ≥50% and ≤75%) | 0.1 to 1 | 50 to 75
CS(=O)(=O)n1ccc(C(=O)N[C@@H](CCCCNC(=O)CCCCCCCCCCNc2cccc3c2C(=O)N(C2CCC(=O)NC2=O)C3=O)C(=O)Nc2nc(-c3ccccc3)cs2)c1 (stereo partly drawn) [Compound 296, 11-[[2-(2,6-dioxopiperidin-3-yl)-1,3-dioxoisoindol-4-yl]amino]-N-[(5S)-5-[(1-methanesulfonylpyrrol-3-yl)formamido]-5-[(4-phenyl-1,3-thiazol-2-yl)carbamoyl]pentyl]undecanamide] | > 10 | C (‘C’ = Maximum degradation <50%) | > 10 | < 50
Cc1ncsc1-c1ccc(CNC(=O)[C@@H]2C[C@@H](O)CN2C(=O)[C@@H](NC(=O)CCOCCOCCC(=O)NCc2cccc(-c3cccc(-c4csc(NC(=O)CNC(=O)c5ccn(S(C)(=O)=O)c5)n4)c3)c2)C(C)(C)C)cc1 [Compound 1, N-(2-((4-(3′-((S)-14-((2S,4R)-4-hydroxy-2-((4-(4-methylthiazol-5-yl)benzyl)carbamoyl)pyrrolidine-1-carbonyl)-15,15-dimethyl-3,12-dioxo-6,9-dioxa-2,13-diazahexadecyl)-[1,1′-biphenyl]-3-yl)thiazol-2-yl)amino)-2-oxoethyl)-1-(methylsulfonyl)-1H-pyrrole-3-carboxamide] | 0.1 to 1 | A (‘A’ = Maximum degradation >75%) | 0.1 to 1 | > 75
Cc1ncsc1-c1ccc(CNC(=O)[C@@H]2C[C@@H](O)CN2C(=O)[C@@H](NC(=O)CCCCCNC(=O)CCCOC[C@H](NC(=O)c2ccn(S(C)(=O)=O)c2)C(=O)Nc2nc(-c3ccccc3)cs2)C(C)(C)C)cc1 [Compound 226, (2S,4R)-4-hydroxy-1-[(2S)-2-(6-[4-[(2S)-2-[(1-methanesulfonylpyrrol-3-yl)formamido]-2-[(4-phenyl-1,3-thiazol-2-yl)carbamoyl]ethoxy]butanamido]hexanamido)-3,3-dimethylbutanoyl]-N-[[4-(4-methyl-1,3-thiazol-5-yl)phenyl]methyl]pyrrolidine-2-carboxamide] | > 10 | C (‘C’ = Maximum degradation <50%) | > 10 | < 50
CN(CC(=O)NCCCCCCCCNc1ccc2c(c1)C(=O)N(C1CCC(=O)NC1=O)C2=O)c1cc(-c2cccc(-c3csc(NC(=O)CNC(=O)c4ccn(S(C)(=O)=O)c4)n3)c2)ccn1 (centres unmarked) [Compound 92] | > 10 | C (‘C’ = Maximum degradation <50%) | > 10 | < 50
Cc1ncsc1-c1ccc(CNC(=O)[C@@H]2C[C@@H](O)CN2C(=O)[C@@H](NC(=O)COCCOCCNC(=O)CCCOCC[C@H](NC(=O)c2ccn(S(C)(=O)=O)c2)C(=O)Nc2nc(-c3ccccc3)cs2)C(C)(C)C)cc1 [Compound 249, (2S,4R)-4-hydroxy-1-[(2S)-2-[2-[2-(2-[4-[(3S)-3-[(1-methanesulfonylpyrrol-3-yl)formamido]-3-[(4-phenyl-1,3-thiazol-2-yl)carbamoyl]propoxy]butanamido]ethoxy)ethoxy]acetamido]-3,3-dimethylbutanoyl]-N-[[4-(4-methyl-1,3-thiazol-5-yl)phenyl]methyl]pyrrolidine-2-carboxamide] | > 10 | C (‘C’ = Maximum degradation <50%) | > 10 | < 50
CS(=O)(=O)n1ccc(C(=O)NCC(=O)Nc2nc(-c3cccc(-c4ccnc(C5(C(=O)NC6CCN(CCOc7ccc8c(c7)C(=O)N(C7CCC(=O)NC7=O)C8=O)CC6)CC5)c4)c3)cs2)c1 (centres unmarked) [Compound 113] | < 0.1 | A (‘A’ = Maximum degradation >75%) | < 0.1 | > 75
